Data published in patent US8735414B2 (priority 2009, dated 2014).

Tested on: bicistronic HCV replicon (replicon RNA, GenBank Accession No. AJ242654)
Assay: HCV Replicon Assay
Type: cell-based
Settings: Hepatitis C virus, 72 h, read-out: Replicon IC50

Structure (SMILES) | IC50 [µM]
N#Cc1c(-c2ccc(S(=O)(=O)NC(CF)CF)cn2)n(C2CCC2)c2cc(C=C(F)F)ccc12 [compound 103, 6-[3-cyano-1-cyclobutyl-6-(2,2-difluoroethenyl)-1H-indol-2-yl]-N-(1,3-difluoropropan-2-yl)pyridine-3-sulfonamide] | < 0.5
C[C@@H](C1CC1)n1c(-c2ccc(NS(=O)(=O)C(C)(C)C)nc2)c(C(=O)O)c2cc(F)c(OC(F)F)cc21 [compound 1080, 2-{6-[(tert-butylsulfonyl)amino]pyridin-3-yl}-1-[(1S)-1-cyclopropylethyl]-6-(difluoromethoxy)-5-fluoro-1H-indole-3-carboxylic acid] | 0.5 to 2
N#Cc1c(-c2ccc(S(N)(=O)=O)cn2)n(C2CCC2)c2cc(C3CC3)ccc12 [compound 90, 6-(3-cyano-1-cyclobutyl-6-cyclopropyl-1H-indol-2-yl)pyridine-3-sulfonamide] | 2 to 5
CC(C)(C)S(=O)(=O)Nc1ccc(-c2c(C(=O)O)c3cc(F)c(OC(F)F)cc3n2C2CCCCC2)cn1 [compound 1064, 2-{6-[(tert-butylsulfonyl)amino]pyridin-3-yl}-1-cyclohexyl-6-(difluoromethoxy)-5-fluoro-1H-indole-3-carboxylic acid] | < 0.5
CC(C)n1c(-c2ncc(S(=O)(=O)NC(CF)CF)cn2)c(C#N)c2cc(Cl)ccc21 [compound 187, 2-[5-chloro-3-cyano-1-(propan-2-yl)-1H-indol-2-yl]-N-(1,3-difluoropropan-2-yl)pyrimidine-5-sulfonamide] | < 0.5
COC(=O)c1c(-c2ccc(NS(=O)(=O)C(C)(C)C)nc2)n(C2CCCCC2)c2cc(OCF)c(F)cc12 [compound 1099, methyl 2-{6-[(tert-butylsulfonyl)amino]pyridin-3-yl}-1-cyclohexyl-5-fluoro-6-(fluoromethoxy)-1H-indole-3-carboxylate] | 0.5 to 2
C[C@H](NS(=O)(=O)c1cnc(-c2c(C#N)c3ccc(Cl)cc3n2CC2CC2)nc1)C(F)(F)F [compound 415, 2-[6-chloro-3-cyano-1-(cyclopropylmethyl)-1H-indol-2-yl]-N-[(2S)-1,1,1-trifluoropropan-2-yl]pyrimidine-5-sulfonamide] | < 0.5
C[C@H](NS(=O)(=O)c1ccc(-c2c(C#N)c3cc(F)ccc3n2C2CCCC2)nc1)C(F)(F)F [compound 435, 6-(3-cyano-1-cyclopentyl-5-fluoro-1H-indol-2-yl)-N-[(2S)-1,1,1-trifluoropropan-2-yl]pyridine-3-sulfonamide] | < 0.5
CC(C)(C)NS(=O)(=O)c1ccc(-c2c(C#N)c3cc(F)c(OC(F)F)cc3n2C2CCC2)nc1 [compound 720, N-tert-butyl-6-[3-cyano-1-cyclobutyl-6-(difluoromethoxy)-5-fluoro-1H-indol-2-yl]pyridine-3-sulfonamide] | < 0.5
[2H][C@@](C)(NS(=O)(=O)c1ccc(-c2c(C#N)c3cc(F)c(C)cc3n2C2CCC2)nc1)C(F)(F)F [compound 1113, 6-(3-cyano-1-cyclobutyl-5-fluoro-6-methyl-1H-indol-2-yl)-N-[(2S)-1,1,1-trifluoro(2-deuterium)propan-2-yl]pyridine-3-sulfonamide] | < 0.5
Cc1ccc2c(c1)c(C(N)=O)c(-c1ccc(S(=O)(=O)N[C@@H](C)C(F)(F)F)cn1)n2-c1ncccn1 [compound 846, 5-methyl-1-(pyrimidin-2-yl)-2-(5-{[(2S)-1,1,1-trifluoropropan-2-yl]sulfamoyl}pyridin-2-yl)-1H-indole-3-carboxamide] | < 0.5
Cc1cc2c(cc1F)c(C#N)c(-c1ccc(S(=O)(=O)N[C@H](C)C(F)(F)F)cn1)n2C1CCOCC1 [compound 749, 6-[3-cyano-5-fluoro-6-methyl-1-(tetrahydro-2H-pyran-4-yl)-1H-indol-2-yl]-N-[(2R)-1,1,1-trifluoropropan-2-yl]pyridine-3-sulfonamide] | < 0.5
Cc1cc2c(cc1F)c(C#N)c(-c1ccc(S(=O)(=O)N[C@@H](C)C(F)(F)F)cn1)n2-c1ncccc1F [compound 814, 6-[3-cyano-5-fluoro-1-(3-fluoropyridin-2-yl)-6-methyl-1H-indol-2-yl]-N-[(2S)-1,1,1-trifluoropropan-2-yl]pyridine-3-sulfonamide] | < 0.5
N#Cc1c(-c2ccc(S(=O)(=O)NC3(C(F)(F)F)CC3)cn2)n(-c2ccccn2)c2cc(OC(F)F)ccc12 [compound 623, 6-[3-cyano-6-(difluoromethoxy)-1-(pyridin-2-yl)-1H-indol-2-yl]-N-[1-(trifluoromethyl)cyclopropyl]pyridine-3-sulfonamide] | 0.5 to 2
CCc1cc2c(cc1F)c(C(N)=O)c(-c1ccc(S(=O)(=O)N[C@@H](C)C(F)(F)F)cn1)n2-c1ccccn1 [compound 909, 6-ethyl-5-fluoro-1-(pyridin-2-yl)-2-(5-{[(2S)-1,1,1-trifluoropropan-2-yl]sulfamoyl}pyridin-2-yl)-1H-indole-3-carboxamide] | 0.5 to 2
CCc1cc2c(cc1F)c(C(N)=O)c(-c1ccc(S(=O)(=O)NC(C)(C)C)cn1)n2-c1ccccn1 [compound 883, 2-(5-(N-tert-butylsulfamoyl)pyridin-2-yl)-6-ethyl-5-fluoro-1-(pyridin-2-yl)-1H-indole-3-carboxamide] | < 0.5

Tested on: not given
Assay: not given
Settings: not given

Structure (SMILES) | melting point [°C]
C[C@@H](NS(=O)(=O)c1ccc(-c2c(C#N)c3ccc(OC(F)F)cc3n2C2CCC2)nc1)C(F)(F)F [compound 196, 6-[3-cyano-1-cyclobutyl-6-(difluoromethoxy)-1H-indol-2-yl]-N-[(2R)-1,1,1-trifluoropropan-2-yl]pyridine-3-sulfonamide] | 159 to 164
CC(C)NS(=O)(=O)c1ccc(-c2c(C#N)c3ccc(OC(F)(F)F)cc3n2C2CCC2)nc1 [compound 10, 6-[3-cyano-1-cyclobutyl-6-(trifluoromethoxy)-1H-indol-2-yl]-N-(propan-2-yl)pyridine-3-sulfonamide] | 191 to 193
CC(C)NS(=O)(=O)c1ccc(-c2c(C#N)c3ccc(C(F)F)cc3n2C2CCC2)nc1 [compound 333, 6-[3-cyano-1-cyclobutyl-6-(difluoromethyl)-1H-indol-2-yl]-N-(propan-2-yl)pyridine-3-sulfonamide] | 212 to 220
CC(C)NS(=O)(=O)c1ccc(-c2c(C#N)c3ccc(OCC(F)F)cc3n2C2CCC2)nc1 [compound 59, 6-[3-cyano-1-cyclobutyl-6-(2,2-difluoroethoxy)-1H-indol-2-yl]-N-(propan-2-yl)pyridine-3-sulfonamide] | 171 to 173
CC(C)NS(=O)(=O)c1ccc(-c2c(C#N)c3ccc(OC(F)F)cc3n2CC2CC2)nc1 [compound 13, 6-[3-cyano-1-(cyclopropylmethyl)-6-(difluoromethoxy)-1H-indol-2-yl]-N-(propan-2-yl)pyridine-3-sulfonamide] | 154 to 156
N#Cc1c(-c2ccc(S(=O)(=O)NC3(C(F)(F)F)CCC3)cn2)n(C2CCC2)c2cc(OC(F)F)ccc12 [compound 106, 6-[3-cyano-1-cyclobutyl-6-(difluoromethoxy)-1H-indol-2-yl]-N-[1-(trifluoromethyl)cyclobutyl]pyridine-3-sulfonamide] | 162 to 168
CC(C)NS(=O)(=O)c1ccc(-c2c(C#N)c3ccc(OC(F)F)cc3n2C(C)C)nc1 [compound 1, 6-[3-cyano-6-(difluoromethoxy)-1-(propan-2-yl)-1H-indol-2-yl]-N-(propan-2-yl)pyridine-3-sulfonamide] | 157 to 159
N#Cc1c(-c2ccc(S(=O)(=O)NC(CO)CO)cn2)n(C2CCC2)c2cc(OC(F)F)ccc12 [compound 239, 6-[3-cyano-1-cyclobutyl-6-(difluoromethoxy)-1H-indol-2-yl]-N-(1,3-dihydroxypropan-2-yl)pyridine-3-sulfonamide] | 132 to 135
C[C@H](NS(=O)(=O)c1ccc(-c2c(C#N)c3ccc(OC(F)F)cc3n2C2CCC2)nc1)C(F)(F)F [compound 300, 6-[3-cyano-1-cyclobutyl-6-(difluoromethoxy)-1H-indol-2-yl]-N-[(2S)-1,1,1-trifluoropropan-2-yl]pyridine-3-sulfonamide] | 159 to 162
C[C@H](NS(=O)(=O)c1ccc(-c2c(C#N)c3ccc(OC(F)F)cc3n2C2CCC2)nc1)C1CC1 [compound 151, 6-[3-cyano-1-cyclobutyl-6-(difluoromethoxy)-1H-indol-2-yl]-N-[(1S)-1-cyclopropylethyl]pyridine-3-sulfonamide] | 163 to 168
N#Cc1c(-c2ccc(S(=O)(=O)NC(CF)CF)cn2)n(C2CCC2)c2cc(C3CC3)ccc12 [compound 35, 6-(3-cyano-1-cyclobutyl-6-cyclopropyl-1H-indol-2-yl)-N-(1,3-difluoropropan-2-yl)pyridine-3-sulfonamide] | 175 to 178
CC(NS(=O)(=O)c1ccc(-c2c(C#N)c3ccc(OC(F)F)cc3n2C2CCC2)nc1)C(F)(F)F (centres unmarked) [compound 78, 6-[3-cyano-1-cyclobutyl-6-(difluoromethoxy)-1H-indol-2-yl]-N-(1,1,1-trifluoropropan-2-yl)pyridine-3-sulfonamide] | 159 to 165
CC(C)NS(=O)(=O)c1ccc(-c2c(C#N)c3cc(F)ccc3n2C2CCC2)nc1 [compound 5, 6-(3-cyano-1-cyclobutyl-5-fluoro-1H-indol-2-yl)-N-(propan-2-yl)pyridine-3-sulfonamide] | 203 to 205
CC(C)NS(=O)(=O)c1ccc(-c2c(C#N)c3ccc(OC(F)F)cc3n2C2CCCCC2)nc1 [compound 99, 6-[3-cyano-1-cyclohexyl-6-(difluoromethoxy)-1H-indol-2-yl]-N-(propan-2-yl)pyridine-3-sulfonamide] | 187 to 190
CC(C)NS(=O)(=O)c1ccc(-c2c(C#N)c3ccc(OC(F)F)cc3n2C2CCCC2)nc1 [compound 52, 6-[3-cyano-1-cyclopentyl-6-(difluoromethoxy)-1H-indol-2-yl]-N-(propan-2-yl)pyridine-3-sulfonamide] | 157 to 158
CC(C)NS(=O)(=O)c1ccc(-c2c(C#N)c3cc(C4CC4)ccc3n2C2CCC2)nc1 [compound 8, 6-(3-cyano-1-cyclobutyl-5-cyclopropyl-1H-indol-2-yl)-N-(propan-2-yl)pyridine-3-sulfonamide] | 172 to 174
